# In patent publication US20020045603A1, “Method of inhibiting membrane-type matrix metalloproteinase” (The Research Foundation of State University of New York, priority 1998, published 2002):
# pIC50: −log10 of the molar value. Entries after “also recorded” stand apart in the source; their conditions may differ.
# Experiments:
# MT1-MMP [1] = biological target: T1, MT1-MMP (Homo sapiens, UniProt P50281); test: Caseinolytic activity of recombinant MT1-MMP, casein zymography; format: biochemical
# Description: In FIG. 3A, the proteolytic activity of MT1-MMP and its inhibition by a tetracycline compound was assessed using casein zymography: […]
# [2] = Solubility in aqueous systems; format: physicochemical
# [3] = rat, in vivo, po
# MT1-MMP [4] = biological target: T1, MT1-MMP; test: Direct digestion of [3H-methyl]-gelatin by membrane fraction of MT1-MMP-transfected COS-1 cells; format: biochemical; details: 18 hr at 37° C.
# Description: Confluent MT1-MMP-transfected COS-1 cells (2×10^7 cells) were harvested following treatment with trypsin-EDTA and washed thoroughly. Cells were suspended in 25 mM sucrose, 5 mM MgCl2 in Tris base, pH 7.4, and then subjected to nitrogen (N2) cavitation at 1000 p.s.i. for 30 min at 4° C. Whole cells and nuclei were removed by centrifugation at 770×g for 10 min, and the postnuclear supernatant was centrifuged at 6,000×g for 15 min to remove heavy organelles. The supernatant was centrifuged at 100,000×g for 60 min, and the cell membrane fraction, comprising plasma membranes, Golgi, and ribosomes, was recovered in the pellet. The 100,000×g supernatant was designated as cytosol.
# Radiolabeled (^3H) collagen type I was denatured, to unravel the triple helix to produce [^3H-methyl]-gelatin. When separated by SDS-PAGE, and examined by autoradiography, the denatured collagen yields three bands: α(˜100 kDa), β(˜200 kDa), and γ(˜300 kDa), corresponding to the various components of the collagen in the sample. The tritiated gelatin substrate was incubated with a membrane fraction obtained by MT1-MMP-transfected COS-1 cells as described above. The gelatinolytic activity was calculated as % lysis of the α, β, and γ intact gelatin components assessed by laser densitometer scanning of the fluorogram.
# MT1-MMP [5] = biological target: T1, MT1-MMP; test: Activation of pro-gelatinase A by MT1-MMP membrane fraction, gelatin zymography; format: biochemical; details: 10, 20, and 50 μM; 18 h at 37° C.
# Description: Recombinant pro-gelatinase A (72 kDa type IV gelatinase) can be activated to from 62 kDa active gelatinase by MT-MMP-containing plasma membrane fractions. To examine the ability of a tetracycline compound to inhibit this gelatinase activating property of MT-MMP, membrane fractions obtained according to Example 1B were incubated with recombinant human pro-gelatinase A for 18 h at 37° C. with or without CMT-3, and examined by zymography to evaluate enzyme activation.
# Specifically, pro-MMP-2 was obtained from the culture-conditioned medium from MMP-2-transfected COS-1 cells.
# Conditioned media were collected from the cultures that had been treated with CMT-3 for 2 days. Media were then incubated with SDS-gel electrophoresis sample buffer for 30 min at room temperature, and then analyzed by gel electrophoresis on SDS-polyacrylamide gel (10%) containing gelatin (1 mg/mL; Novex, Inc.). Following electrophoresis, the gels were washed twice with 0.25% TRITON® X-100 for 30 min each (to renature the gelatinase), and incubated for 18-24 hr at 37° C. in a Tris-HCl buffer, pH 7.4 (see, e.g., Lokeshwar 1993). After incubation, the gels were briefly rinsed in distilled water and stained with 0.25% Coomassie brilliant blue R250. The location of gelatinase activity in the gels is visible as a colorless area on an otherwise uniform blue background, indicative of digested gelatin.
# MT1-MMP [6] = biological target: T1, MT1-MMP; test: Conversion of pro-gelatinase A to active gelatinase A by recombinant MT1-MMP, SDS-PAGE; format: biochemical
# Description: The proteolytic activity of MT1-MMP was assessed using gelatinase A zymography. Pure recombinant pro-MMP-2 (72 kDa gelatinase or pro-gelatinase A) and MT1-MMP were co-incubated in the presence or absence of CMT-3 (0.5-3.0 μM). After incubation, the enzyme mixture was examined by SDS-PAGE and the protein (enzyme) bands were stained with Coomassie brilliant blue.
# MG-63 osteosarcoma cells = test: MMP-2 expression and MT1-MMP-dependent activation of pro-MMP-2, concanavalin A-treated MG-63 cells, zymography; format: cell-based, human
# Description: MG-63 cells, an osteosarcoma cell line, were grown in culture and treated with 40 μg/mL concanavalin A to induce MT1-MMP-dependent activation of pro-MMP-2. Culture-conditioned medium was collected, as a source of pro-MMP-2, and was incubated in the presence of the membrane fraction of COS-1 cells transfected to express MT1-MMP.
# [7] = system: HT-1080 fibrosarcoma cells; test: Matrigel invasion of HT-1080 fibrosarcoma cells; format: cell-based, human; details: for concentration of maximal inhibition of invasion: 24 hr, 10% serum
# Description: HT-1080 cells were allowed to invade through Matrigel (Collaborative Research, Bedford, Mass.) for 24 hr in medium containing 10% serum. CMT-3 or CMT-8 were added to the medium to assess their ability to inhibit invasivity of the cells. CMT-3 was tested at final concentrations of 1 μM or 10 μM; CMT-8 was tested twice at a final concentration of 50 μM. The invading cells were counted, and the relative numbers of cells were expressed as means of triplicate measurements.
# [8] = system: HT-1080 fibrosarcoma cells; test: Transwell migration of HT-1080 fibrosarcoma cells; format: cell-based, human; details: 18 hr, 10% serum; for inhibition of HT-1080 fibrosarcoma cell migration: 0.5 μM
# Source text: HT-1080 cells were allowed to migrate in the presence of medium containing 10% serum for 18 hr in Transwell chambers (Costar, Cambridge, Mass.). […] The data are expressed as means of triplicate measurements.
# studied cell lines [9] = test: Cytotoxicity to the cells under the conditions used; format: cell-based; details: data not shown
# cell surface integrins = test: Blocking of cell surface integrins; format: cell-based; details: data not shown
# studied cell lines [10] = test: Initial attachment and spreading of cells on extracellular matrix or Matrigel substrate; format: cell-based; details: data not shown
# Serum half-life = details: in vivo
# normal cells = test: Cytotoxicity in normal cells; format: cell-based
# [11] = system: prostate and melanoma tumor; details: in vivo; Lokeshwar et al. 1998; Seftor et al. 1998; cited from earlier work
smiles,measurement,setting,value
"O=S(=O)(F)Cc1ccccc1 [PMSF, reference compound]",inhibition of caseinolytic activity,MT1-MMP [1]; 0.5 mM,did not inhibit
"CN(C)C1C(=O)C(C#N)=C(O)C2(O)C(=O)C3=C(O)c4c(O)cccc4C(C)(O)C3CC12 (stereo not shown) [CMT-2, tetracyclinonitrile]",solubility in aqueous systems,[2],low solubility
same,blood levels,[3],no detectable blood levels
"O=C(O)CN(CCN(CC(=O)O)CC(=O)O)CC(=O)O [EDTA, reference compound]",inhibition of caseinolytic activity,MT1-MMP [1]; 2 mM,did inhibit
"NC(=O)C1=C(O)C[C@@H]2C[C@@H]3Cc4cccc(O)c4C(=O)C3=C(O)[C@]2(O)C1=O [CMT-3, 6-demethyl-6-deoxy-4-de(dimethylamino)tetracycline]",inhibition of gelatinolytic activity,MT1-MMP [4]; 5 μM,16.3%
same,inhibition of gelatinolytic activity,MT1-MMP [4]; 10 μM,35%
same,inhibition of gelatinolytic activity,MT1-MMP [4]; 20 μM,32%
same,inhibition of MT1-MMP-induced activation of pro-gelatinase A,MT1-MMP [5],inhibited
same,pIC50,MT1-MMP [1],5.52 to 6.00
same,inhibition of caseinolytic activity,"MT1-MMP [1]; 0.5, 1.5, and 3.0 μM, 50 ng MT1-MMP, β-casein 52 μM",progressive inhibition of caseinolytic activity by increasing
same,inhibition of the formation of the smaller molecular weight species of gelatinase A,MT1-MMP [6]; 3.0 μM,essentially completely inhibits
same,inhibition of the conversion of pro-gelatinase A to active gelatinase A,"MT1-MMP [6]; 0.5, 1.0, 1.5 and 3.0 μM, 50 ng recombinant MT1-MMP",progressive inhibition
same,gelatin-degrading activity of incubated medium,MG-63 osteosarcoma cells; 0.5 μM to 3.5 μM,inhibited
same,percent of activated MMP-2 in the total expressed MMP-2,MG-63 osteosarcoma cells; 0.5 μM to 3.5 μM,decreased in a dose-dependent fashion
same,active MMP-2,MG-63 osteosarcoma cells; 3.0 μM and 3.5 μM,no active MMP-2 was detected
same,prevention of invasion in comparison to CMT-8,[7],slightly more effective
same,concentration of maximal inhibition of invasion,[7],50 µM
same,inhibition of HT-1080 fibrosarcoma cell migration,[8],clear inhibition; also recorded: Effective inhibition
same,concentration of maximal inhibition of migration,[8],50 µM
same,cytotoxicity to the cells,studied cell lines [9],not cytotoxic
same,blocking of cell surface integrins,cell surface integrins,did not block
same,initial attachment and spreading of studied cell lines,studied cell lines [10],did not prevent
same,serum half-life,Serum half-life,approximately 28 hr
same,cytotoxicity in normal cells,normal cells,little or substantially no cytotoxicity
same,tumor growth and metastasis,[11],suppress prostate and melanoma tumor growth and metastasis
"C[C@H]1c2cccc(O)c2C(O)=C2C(=O)[C@]3(O)C(O)=C(C(N)=O)C(=O)C[C@@H]3[C@@H](O)[C@@H]21 [CMT-8, 6-deoxy-5α-hydroxy-4-de(dimethylamino)tetracycline]",concentration of maximal inhibition of invasion,[7],50 µM
same,inhibition of HT-1080 fibrosarcoma cell migration,[8],clear inhibition; also recorded: Effective inhibition
same,concentration of maximal inhibition of migration,[8],50 µM
same,cytotoxicity to the cells,studied cell lines [9],not cytotoxic
same,blocking of cell surface integrins,cell surface integrins,did not block
same,initial attachment and spreading of studied cell lines,studied cell lines [10],did not prevent
